Results as given in patent US20080108665A1, “Use of N-substituted sulfoximines for control of invertebrate pests” (priority 2006, published 2008).

Experiments:
Type in all cases: in vivo
[1] = tested on: Brown Dog Tick (Rhipicephalus sanguineus); assay: Brown dog tick glass plate assay; details: 48-hour exposure, mean
Procedure: Compound (2) was evaluated in a dose response series to establish the range of activity of the test compound. Technical material was dissolved in acetone and diluted with the same solvent to obtain the test concentrations. Tick bioassays were conducted by applying 1.0 ml of the test substance to clean dry glass plates confined by 10 cm grease pencil circles drawn on the plates and spread evenly with an acid brush. The plates were allowed to dry for at least 1 hour before adult ticks were confined to the treated substrate using 10 cm Petri dish lids. Each treatment was replicated 5 times. Approximately 5 adult ticks were placed into each replicate. Mortality was assessed at 2, 8, 24 and 48 hours after introduction of the ticks into the test system. The mean percent mortality for each dosage group and time interval was determined and results from the 48-hour observation are presented in Table 9.

[2] = tested on: Green Peach Aphid (Myzus persicae); assay: Green peach aphid root uptake assay on pepper; details: 3 days after infestation
Procedure: These assays were designed to evaluate the possibility of using the compounds identified in the foregoing examples for applications such as nursing trays, transplanting water and/or irrigation. Systemic activity against green peach aphid was evaluated in a root uptake assay. Bell peppers (Capsicum annum var. California Wonder) were used as test plants seeded and grown in rock wool plugs. Plants were grown to expanding 1st true leaf stage. The rock wool plugs containing individual plants were placed in 1-ounce cups and surrounded with white clean sand. Five plants were used for each treatment. A volume of 5 mL of the test solutions was applied to each cup (each plant). After insecticide application, the seedlings were infested with green peach aphids and held in a growth chamber (25° C., 50% RH, 16 hr light: 8 hr dark). Number of live aphids on each plant was counted at 3 days after infestation. Calculations for % Control were based on a corrected basis compared to the populations on the reference plants.
Corrected % Control=100*(X−Y)/X • where X=No. of live aphids on reference plants • Y=No. of live aphids on treated plants Assay 1: Compound (3) was tested at a dose range of 5-500 μg/plant. A stock solution of 1000 ppm (1 mg/mL) was made by dissolving technical test compound in acetone:ethanol (90:10). The highest test concentration (100 ppm, 500 μg/5 ml) was prepared by diluting 2.5 mL stock solution with 22.5 mL DI water. The lower test concentrations (25 mL) were similarly prepared by diluting aliquots of the stock solution with DI water. Reference plants received DI water only.
Assay 2: Compound (2) was tested at a dose range of 0.08-50 μg/plant. A stock solution of 1000 ppm was made by dissolving 2 mg of technical test compound in 2 mL acetone. The highest test concentration (10 ppm, 50 μg/5 ml) was prepared by diluting 0.32 mL stock solution with 1.6 mL acetone and 30.08 mL DI water, containing 6% acetone. Lower test concentrations were prepared by sequentially diluting 6.5 mL higher concentration (start from the 10 ppm test solution) with 26.0 ml acetone: DI water (6:94). The solvent/diluent system (6% acetone) was used as reference.

[3] = tested on: Bird Cherry-Oat Aphid (Rhopalosiphum padi); assay: Bird cherry-oat aphid seed coating assay on wheat; details: 1.34 mg/seed, 10% SC formulation, 4 days after infestation
Procedure: Twenty spring wheat (Triticum aestivum var. Yuma) seeds were placed on a waxed paper. A pipette was used to apply a 10% SC formulation of the test compound to each seed. Two application of 6.7 μl each were applied to a seed, waiting until the seed was air-dried between applications. The total amount of active ingredient applied to each seed was 1.34 mg. All coated seeds are planted into 3 inch pots containing greenhouse metro mix, with 4 seeds used in each pot. An appropriate number of untreated seeds was also planted for control. The pots are placed on a California cart and moved into a greenhouse for initial and subsequent sub-watering. When the plants had germinated and grown to the 1-2 leaf unfurled stage, they were infested with bird cherry-oat aphid. The infested plants were held in an environmental chamber (23° C., 40% RH, 16 hr light: 8 hr dark) for 4 days before an assessment of aphid populations was conducted. Calculations for % Control are based on a corrected basis compared to the populations on the untreated controls.
Corrected % Control=100*(X−Y)/X • where X=No. of live aphids on untreated plants • Y=No. of live aphids on treated plants

## CC(c1ccc(Cl)nc1)S(C)(=O)=NC#N (centres unmarked) [Compound 2, [1-(6-chloropyridin-3-yl)ethyl](methyl)oxido-λ^4-sulfanylidenecyanamide]
[1]; 5.0 ppm
  mortality at 5 ppm: 52%
[1]; 50.0 ppm
  mortality at 50 ppm: 56%
[1]; 500.0 ppm
  mortality at 500 ppm: 84%
[2]; 0.08 μg/plant
  % Control, root uptake systemic: 41%
[2]; 0.4 μg/plant
  % Control, root uptake systemic: 48%
[2]; 2 μg/plant
  % Control, root uptake systemic: 95%
[2]; 10 μg/plant
  % Control, root uptake systemic: 99%
[3]
  % Control, seed coating systemic: 100%
